Legend:
Assay type in all cases: physicochemical
[1] = Absorption and fluorescence spectroscopy of CBN ether dimers (odd-even effect); conditions: FIG. 9
Text: A change in number of carbon atoms in the linker with respect to the fluorescence was observed. Absorption and fluorescence spectroscopy was used to evaluate this change with the different dimers and the results are provided in FIGS. 9-10. FIG. 9 is a stacked graph of fluorescence spectroscopy for the odd and even series of dimers of Example 12 (x-axis wavelength in nanometers; y-axis intensity) and FIG. 10 is a stacked graph of the absorption spectroscopy for the same dimers (x-axis wavelength in nanometers; y-axis intensity). […] By changing the number of carbons in linkers, it was observed that when the number of carbon spacer is odd (3C and 5C) the fluorescence is higher compared to the even (2C, 4C and 6C), and a distinct hump at higher wavelengths is observed for odd numbered linkers. This change in the spectra with changing the number of carbons is termed here as the “odd-even effect”.

[2] = Fluorescence viewed under long range UV light of 365 nm; conditions: excitation at 365 nm
Text: In fact, the fluorescence is tied to molecular structure as characterized by ^1H NMR. Phytocannabinoids THC and CBN, are fluorescent, with excitation at 365 nanometer (nm). When fluorescent, the CBN phenolic OH becomes broad meaning that it is in some way connected to the fluorescence of the molecule.

[3] = Fluorescence quenching by phenylenediamine isomers in acetone
Experimental: Experiments were conducted to investigate the fluorescence quenching of cannabinol 2C ether dimer (Example 12) in acetone upon mixing with different isomers of phenylenediamine: ortho-phenylenediamine, meta-phenylenediamine, and para-phenylenediamine. […] This quenching phenomenon can be attributed to the electronic interactions and spatial arrangements of the amino groups in the different phenylenediamine isomers. Both ortho- and para-phenylenediamine have amino groups positioned such that they can effectively engage in electron-donating and resonance interactions with the excited state of cannabinol 2C ether dimer, facilitating non-radiative relaxation pathways such as photoinduced electron transfer (PET).

[4] = Fluorescence spectrometer analysis of cannabinoid monomers and adipate dimers
[5] = Stability of CBN observed by NMR
Text: In some embodiments, charge transfer complexes will quench fluorescence, and FRET as it will enhance fluorescence and cause a shift in color. Such adaptations provide, for example, for observation and understanding of a drug as it travels through the body, moves through a cell wall, and binds to a receptor site.

[6] = Fluorescence of CBN-aniline
Experimental: The synthesis of CBN-aniline was conducted via C—O bond using copper catalyst. The product was characterized by ^1H NMR. […] The CBN-aniline can be formed into dimers by linking through the aniline amine.

| SMILES | fluorescence (fluorescent or not) [2] | maximum fluorescence, Wavelength (nm) [4] | also measured |
| --- | --- | --- | --- |
| CCCCCc1cc(OCCCCCOc2cc(CCCCC)cc3c2-c2cc(C)ccc2C(C)(C)O3)c2c(c1)OC(C)(C)c1ccc(C)cc1-2 [5C] | – | – | fluorescence, odd carbon spacer compared to the even (2C, 4C and 6C) [1]: higher |
| CCCCCc1cc(O)c2c(c1)OC(C)(C)[C@@H]1CCC(C)=C[C@@H]21 [THC, tetrahydrocannabinol, reference compound] | fluorescent | – | – |
| C=C(C)[C@@H]1CCC(C)=C[C@H]1c1c(O)cc(CCCCC)cc1O [CBD, cannabidiol, reference compound] | lacking in fluorescence | – | – |
| CCCCCc1cc(OCCOc2cc(CCCCC)cc3c2-c2cc(C)ccc2C(C)(C)O3)c2c(c1)OC(C)(C)c1ccc(C)cc1-2 [cannabinol 2C ether dimer, Dicannabinolethyleneether dimer] | – | – | fluorescence quenching with meta-phenylenediamine [3]: minimal quenching; fluorescence quenching with ortho-phenylenediamine [3]: significantly quenched; fluorescence quenching with para-phenylenediamine [3]: significantly quenched |
| CCCCCc1cc(OC(=O)CCCCC(=O)Oc2cc(CCCCC)cc3c2C2CC(C)=CCC2C(C)(C)O3)c2c(c1)OC(C)(C)C1CC=C(C)CC21 (stereo not drawn) [d-8 THC adipate dimer] | fluorescent properties | 384 nm | – |
| CCCCCc1cc(O)c2c(c1)OC(C)(C)[C@@H]1CC=C(C)C[C@@H]21 [D-8 THC] | fluorescent properties | 380 nm | – |
| CCCCCc1cc(OCCCOc2cc(CCCCC)cc3c2-c2cc(C)ccc2C(C)(C)O3)c2c(c1)OC(C)(C)c1ccc(C)cc1-2 [3C] | – | – | fluorescence, odd carbon spacer compared to the even (2C, 4C and 6C) [1]: higher |
| CCCCCc1cc(OC(=O)CCCCC(=O)Oc2cc(CCCCC)cc3c2-c2cc(C)ccc2C(C)(C)O3)c2c(c1)OC(C)(C)c1ccc(C)cc1-2 [CBN adipate dimer, DiCannabinol adipate] | fluorescent properties | 418 nm | fluorescence result compared among the cannabinoids tested ([4]; over THC adipate dimer): most promising results |
| CCCCCc1cc(O)c2c(c1)OC(C)(C)c1ccc(C)cc1-2 [CBN, cannabinol] | fluorescent | 385 nm | fluorescence (fluorescent or not) ([2]; listed as Cannabinol (CBN)): fluorescent properties; chemical stability [5]: remains CBN for long durations |
| CCCCCc1cc(Oc2ccc(N)cc2)c2c(c1)OC(C)(C)c1ccc(C)cc1-2 [CBN-aniline] | – | – | fluorescent properties [6]: exhibited fluorescent properties |
| CCCCCc1cc(O)c(C/C=C(\C)CCC=C(C)C)c(O)c1 [CBG, cannabigerol] | lacking in fluorescence | – | – |
| CCCCCc1cc2c(c(O)c1C(=O)O)[C@@H]1C=C(C)CC[C@H]1C(C)(C)O2 [D-9 THCA, Tetrahydrocannabinolic acid] | fluorescent properties | – | – |

Reference: patent US12480074B2, “Natural and synthetic cannabinoids as fluorescent tags; compositions, methods, and applications” (UNIVERSITY OF CONNECTICUT, priority 2023, dated 2025)
